In patent publication US7524490B2, “Clusterin-mediated inhibition of apoptosis via stromal bone marrow cell delivery to a cardiac site” (Board of Regents of the University of Texas System, priority 2004, dated 2009):

Legend:
[1] = test system: vascular smooth muscle cells; assay: Oxysterol-induced internucleosomal DNA fragmentation and apoptosis in vascular smooth muscle cells; type: cell-based
Source text: FIG. 11 is an ethedium bromide-stained agarose gel loaded with DNA samples extracted from clusterin-transfected or non-transfected vascular smooth muscle cells.
Detection of apoptotic cells. Determination of apoptosis needs a combination of techniques in morphology and biochemistry. Apoptosis was detected using the following six techniques: 1) Light microscopy; 2) Fluorescent confocal scanning or non-confocal microscopy, 3). In situ labeling of DNA 3′ ends (TUNEL technique), 4) Electron microscopy, 5) DNA agarose gel electrophoresis, and 6) Flow cytometry. These techniques are describe more particularly as follows: 1) Light microscopy was applied routinely to analyze morphological changes of vascular cells. 2) Fluorescent confocal scanning or non-confocal microscopy was used to characterize cytoskeletal and nuclear alterations after immunofluorescent staining. DAPI or Hoechst dye was used for nuclear morphology under UV excitation. 3). […] The signal of TdT-mediated dUTP nick end labeling (TUNEL) was detected by an anti-digoxigenin antibody conjugated with peroxidase, a reporter enzyme which catalytically generates a brown color product from the chromogenic substrate diaminobenzidine. […] DNA was precipitated in ethanol, and analyzed for fragmentation by 2% agarose gel electrophoresis with ethidium bromide. […] In this study, cell proliferation and apoptosis were analyzed by flow cytometry. […]

KG-293 cells = assay: TNF-α-induced apoptosis in KG-293 cells with tetracycline-induced intracellular clusterin; type: cell-based, human
Source text: Transfection with clusterin cDNA. Initially a plasmid was constructed that contains a truncated form of clusterin cDNA with deletion of the sequence responsible for cross-membrane transport. Transfection of human embryonic 293 cell line with this plasmid leads to intracellular overexpression of a non-secreted form of clusterin. The clusterin gene is under control of a CMV promoter with tetracycline-sensitive elements. […] This plasmid will be used to deliver the truncated clusterin gene into stem cells. The cells will be selected using G418 as the plasmid contains a neomycin-resistant gene.
A plasmid pKS7 that contains a truncated clusterin cDNA with deletion of the transmembrane domain and a neomycin-resistant gene was constructed. The truncated clusterin gene was under regulation by a CMV promoter with tetracycline-responding elements. Stable transfection of the human embryonic kidney cell line T-293 with pKS7 generates a stable cell line (KG-293) with clusterin overexpressed. As shown by Western blot, under stimulation with tetracycline (1 μg/ml) for 24 hours, KG-293 cells but not their precursors, T-293 cells, produced an intracellular form of clusterin at much higher levels (FIG. 7A). […] KG-293 cells overexpressing the intracellular form of clusterin also underwent dramatic alterations in morphology and proliferation. […]

[2] = test system: murine cardiac stem cells; assay: Apoptosis of cardiac stem cells induced by serum starvation, with or without clusterin; type: cell-based, mouse; conditions: clusterin-containing DMEM medium, many cells died without clusterin
Protocol: Treatment of stem cells in culture. An in vitro system was first employed to examine the protective effects of clusterin on stem cells. Stem cells were treated with clusterin at different concentrations in the cultures with or without proinflammatory cytokines or T lymphocytes pre-activated by mitogens. After 2-4 days of stimulation, cell survival and apoptosis were examined using a combination of techniques including flow cytometry, fluorescent microscopy, and radioactive isotope labeling, as described below. Control experiments were set up using other types of proteins, such as bovine albumin.
Detection of apoptotic cells. Determination of apoptosis needs a combination of techniques in morphology and biochemistry. Apoptosis was detected using the following six techniques: 1) Light microscopy; 2) Fluorescent confocal scanning or non-confocal microscopy, 3). […] The signal of TdT-mediated dUTP nick end labeling (TUNEL) was detected by an anti-digoxigenin antibody conjugated with peroxidase, a reporter enzyme which catalytically generates a brown color product from the chromogenic substrate diaminobenzidine. […] DNA was precipitated in ethanol, and analyzed for fragmentation by 2% agarose gel electrophoresis with ethidium bromide. […] In this study, cell proliferation and apoptosis were analyzed by flow cytometry. […]

stem cells = assay: Clusterin pretreatment of stem cells in serum-free conditioned medium; type: cell-based, mouse; conditions: 20-30 μg/ml clusterin, 24 hours, preliminary data
Protocol: Stem cell culture and treatment with oxysterols and cytokines. Mouse stem cells were used in this in vitro study. Two groups of proapoptotic agents were used to induce apoptosis of stem cells: oxysterols and cytokines. In group 1, stem cells were treated with 7-ketocholesterol (7-KC) and 25-OH-cholesterol (25-OH—C), two oxysterols known to exist in abundantly in atherosclerotic lesions and to induce apoptosis in cardiovascular cells. Free cholesterol was used as controls. In group 2, stem cells were incubated with a combination of tumor necrosis factor (TNF)-α and interferon (IFN)-γ, two cytokines previously shown to induce apoptosis of stem cells. In addition, to determine whether the Fas death-signaling pathway is involved in apoptosis of stem cells, stem cells were treated with recombinant Fas ligand in the presence of IFN-γ.
Clusterin treatment. In order to determine whether clusterin prevents apoptosis of stem cells, stem cells were pretreated with clusterin purified from serum or synthesized by use of recombinant technology. Stem cells were cultured in a serum-free, conditioned medium supplemented with 20-30 μg/ml clusterin for 24 hours. The preliminary data indicated no apoptosis under the culture condition with clusterin. […] Cells were analyzed for apoptosis using the following methods after treatment. […]

[3] = Dot blotting of clusterin binding to filter-coated lipids; parameters: species or system mouse; conditions: 10 μg/well serum proteins from TG and WT mice, 30 min, room temperature; anti-clusterin detection
Protocol: As a component of HDL, clusterin helps transport cholesterol crossing the cellular membrane. In atherosclerotic lesions, cholesterol-derived oxysterols accumulate and exert apoptotic effects on vascular cells. Usually, the cytotoxicity of oxysterols including 7-ketocholesterol is much greater than that of free cholesterol. […] Free cholesterol and 7-ketocholesterol dissolved in ethanol were loaded to a filter in a 96-well dot blotting device. 10 μg/well proteins from three TG and WT serum samples were incubated in the wells for 30 min at room temperate. After washing with PBS, the filter was incubated with anti-clusterin antibody (1:200), and then anti-goat IgG conjugated with peroxidase. The dot blotting was developed using an ECL kit. Furthermore, an increased binding activity to the oxysterol in the serum from clusterin transgenic mice, compared to these in wild type mouse serum (FIG. 10), was detected. Thus, clusterin appears to have a higher affinity to some oxidized cholesterol derivatives.

[4] = test system: aldehyde dehydrogenase-1 (ALDH-1); assay: Induction of aldehyde dehydrogenase expression in smooth muscle cells (immunoblot); type: cell-based, murine; conditions: recombinant human clusterin 0, 5, 25, 50 μg/ml; concentration-dependent
Protocol: FIG. 13 is an immunoblot showing induction of aldehyde dehydrogenase-1 (ALDH-1) in murine vascular smooth muscle cells by treatment with recombinant human clusterin (apoJ) at different concentrations (lane 1, 0 μg/ml; lane 2, 5 μg/ml; lane 3, 25 μg/ml; lane 4, 50 μg/ml).
Aldehyde dehydrogenase expression and vitamin A metabolism were investigated to determine whether clusterin exerts its protective effect through upregulation of genes involved in cellular detoxification. Aldehyde dehydrogenases (ALDHs) are a group of intracellular enzymes that mediate NAD-coupled oxidation of aldehydes to carboxylic acids. ALDH is probably most widely known for its role in clearance of acetaldehyde from beverage alcohol by conversion to acetic acid. This enzymes is also involved in retinol metabolism and mediates vitamin A function. Members of the ALDH family are diversed; some have broad substrate specificities (ALDH1 and ALDH2) and other ALDHs are tailored to specific reactions of intermediary metabolism (e.g., methyl malonic semialdehyde dehydrogenase in branched-chain amino acid metabolism). ALDH1 is primarily found in the liver and in adult stem cells including hematopoietic stem cells. […]

**Q.** Which “induction of apoptosis of vascular smooth muscle cells (internucleosomal DNA fragmentation)” value ([1]; exposure to oxysterol) does the source give for `CC(C)CCC[C@@H](C)[C@H]1CC[C@H]2[C@@H]3C(=O)C=C4C[C@@H](O)CC[C@]4(C)[C@H]3CC[C@]12C` [7-ketocholesterol, reference compound] here?
**A.** can trigger apoptosis

**Q.** For TNF-α [reference compound], which “induction of apoptosis in control KG-293 cells” value (KG-293 cells; TNF-α 10 ng/ml for 24 and 48 hours, cells not exposed to tetracycline) is on record?
**A.** markedly induced apoptosis

**Q.** For “clusterin: sulfated, heterodimeric glycoprotein containing two 40 kDa chains joined by a five disulfide bond motif; native or recombinant”, which “apoptosis of cardiac stem cells (morphology, acridine orange/ethidium bromide staining)” value [2] is on record?
**A.** no sign of apoptosis

**Q.** And the “apoptosis of stem cells under culture condition with clusterin” value (stem cells)?
**A.** no apoptosis

**Q.** What about the “effect on the pro-apoptotic effect of TNF-α” value (KG-293 cells; KG-293 cells with intracellular overexpression of truncated clusterin (pKS7, tetracycline 1 μg/ml)) of the same compound?
**A.** significantly attenuated

**Q.** What about the “binding to 7-ketocholesterol versus free cholesterol (dot blot intensity)” value [3] of the same compound?
**A.** much higher intensities than free cholesterol

**Q.** What about the “effect on oxysterol-induced DNA fragmentation and apoptosis in vascular cells” value ([1]; overexpression of clusterin by cDNA transfection) of the same compound?
**A.** markedly reduces the DNA fragmentation and apoptosis

**Q.** And the “expression of ALDH in smooth muscle cells” value [4]?
**A.** significantly induced expression of ALDH
